How the values were obtained:
[1] = tested on: APESV (Apera spica-venti, windgrass); assay: greenhouse experiment, pre-emergence herbicidal activity against APESV; format: in vivo; details: pre-emergence method, scale from 0 to 100
Description: The seeds of the test plants were sown separately for each species. For the pre-emergence treatment, the active ingredients, which had been suspended or emulsified in water, were applied directly after sowing by means of finely distributing nozzles. The containers were irrigated gently to promote germination and growth and subsequently covered with transparent plastic hoods until the plants had rooted. This cover caused uniform germination of the test plants, unless this has been impaired by the active ingredients. Depending on the species, the plants were kept at 10-25° C. or 20-35° C. The test period extended over 2 to 4 weeks. During this time, the plants were tended, and their response to the individual treatments was evaluated. Evaluation was carried out using a scale from 0 to 100. 100 means no emergence of the plants, or complete destruction of at least the aerial moieties, and 0 means no damage, or normal course of growth. A good herbicidal activity is given at values of at least 70 and a very good herbicidal activity is given at values of at least 85. The plants used in the greenhouse experiments belonged to the following species: [table]

Row | melting point [°C] | SMILES | also measured
1 |  | CN1C(=O)C(Cc2ccccc2)(C(=O)C(F)(F)F)N(C)C(=O)/C1=C/c1ccccc1C#N (stereo not shown) [Example 4, 2-[5-Trifluoroacetyl-5-benzyl-1,4-dimethyl-3,6-dioxopiperazin-(Z)-2-ylidenemethyl]benzonitrile] | herbicidal activity against APESV ([1]; application rate 0.5 kg/ha): good to very good
2 | 224 | CN1C(=O)C2(CC2c2ccccc2)N(C)C(=O)/C1=C/c1cccnc1C#N (single isomer, unassigned) [Example 34] | 
3 | 190 | CN1C(=O)C2(CC2c2ccccc2)N(C)C(=O)/C1=C/c1ccccc1C#N (single isomer, unassigned) [Example 32] | 
4 | 180 | CN1C(=O)c2cc3cccnc3n2C(=O)C1(C)Cc1ccccc1 (stereo not shown) [Example 24] | 
5 | 78 | CN1C(=O)C2(CC2c2ccccc2)N(C)C(=O)/C1=C/c1ccccc1Br (stereo not shown) [Example 31] | 
6 | 170 to 172 | CN1C(=O)c2cc3c([N+](=O)[O-])ccc(F)c3n2C(=O)C1(C)Cc1ccccc1 (stereo not shown) [Example 23] | 
7 | 145 | CN1C(=O)C2(CC2c2ccccc2)N(C)C(=O)/C1=C/c1ccccc1[N+](=O)[O-] (stereo not shown) [Example 30, 6-[1-(2-Nitrophenyl)-meth-(Z)-ylidene]-4,7-dimethyl-1-phenyl-4,7-diazaspiro[2.5]octane-5,8-dione] | 
8 |  | C=CCC1(Cc2ccccc2)C(=O)N(C)/C(=C\c2ccccc2C#N)C(=O)N1C (stereo not shown) [Example 2, 2-(5-Benzyl-1,4-dimethyl-5-allyl-3,6-dioxo-piperazin-(Z)-2-ylidenemethyl)-benzonitrile] | herbicidal activity against APESV ([1]; application rate 1.0 kg/ha): very good (a very good herbicidal activity is given at values of at least 85)
9 | 169 | CN1C(=O)C2(CC2c2ccccc2)N(C)C(=O)/C1=C/c1cccnc1Cl (stereo not shown) [Example 33] | 
10 |  | CSC1(Cc2ccccc2)C(=O)N(C)C(=Cc2ccccc2C#N)C(=O)N1C (stereo not shown) [1a/1b, 2-(5-Benzyl-1,4-dimethyl-5-methylsulfanyl-3,6-dioxopiperazin-2-ylidenemethyl)benzonitrile] | herbicidal activity against APESV ([1]; application rate 0.5 kg/ha): good to very good

— patent US20100167933A1, “Piperazine Compounds With Herbicidal Action” (priority 2007, published 2010)
